Patent publication US4536510A, “Method of antagonizing the effects of thromboxane” (Smith Kline Beckman Corporation, priority 1983, dated 1985)
pIC50: −log10 of the molar value. Read-outs that look alike come from different tables or passages of the source.

How the values were obtained:
[1] = test system: human platelet aggregation; test: Inhibition of human platelet aggregation in platelet-rich plasma; format: cell-based
Description: Platelet-rich plasma (PRP) and platelet-poor plasma (PPP) are prepared from citrated blood of drug-free human volunteers and are stored at room temperature for at least 30 minutes before use. Each PRP sample is preincubated two minutes at 37° C. prior to addition of N,N-bis[7-(3-chlorobenzeneaminosulfonyl)-1,2,3,4-tetrahydroisoquinolyl]disulfonylimide (Compound I) or agonists; Compound I is preincubated for 1 minute prior to addition of agonist. A dose response is determined for each agonist, and a concentration which gives a biphasic response is selected. Compounds are tested for inhibition of the response (control response) generated by this agonist concentration. A time is selected, and the height at which the various curves intersect this time line is measured and expressed in mm (a measure of light transmittance). The difference between the response of the control and that with inhibitor present is used to calculate percent inhibition. This value is plotted against inhibitor concentrations to determine the IC50 (the inhibitory concentration of Compound I which inhibits aggregation by 50%).

[2] = test system: isolated guinea pig tracheas; test: Antagonism of contractions elicited by carbocyclic thromboxane A2 (CTA2), trachea; settings: for contractile response (mg tension): trachea, Compound I 1×10^-5 M, 30 min
Description: (§1) Isolated guinea pig tracheas or paired lung parenchymal strips were attached via silk suture to force displacement transducers for recording changes in isometric tension. The tissues were equilibrated for one hour in modified Krebs' buffer at 37.5° C. and aerated with 95% O2 /5% CO2. Then, the tissues were equilibrated for 30 additional minutes with N,N'-bis[7-(3-chlorobenzeneaminosulfonyl)-1,2,3,4-tetrahydroisoquinolyl]disulfonylimide (Compound I) (1×10^-5 M) or buffer. Contraction of the tissues was then elicited by increasing the bath concentration of CTA2 in a cumulative fashion. The contractile responses were recorded as changes in mg tension.

[3] = test system: isolated guinea pig lung parenchymal strips; test: Antagonism of contractions elicited by carbocyclic thromboxane A2 (CTA2), lung parenchymal strips; settings: for contractile response (mg tension): lung parenchyma, Compound I 1×10^-5 M, 30 min
Description: as §1

[4] = test system: canine bronchoconstriction induced by U-44069; test: Protection in a drug-induced (U-44069) canine bronchospasm; format: in vivo, mongrel dogs; settings: for Decrease in ability of lungs to expand easily / Increase in resistance to movement of air into the lungs: anesthetized dogs
Description: Bronchopulmonary responses to these agents were measured by computer analyses in 5 spontaneously breathing, anesthetized mongrel dogs. In a dose range of 0.3-3.0 μg/kg i.v., the endoperoxide analog produced dose-related alterations in pulmonary airway resistance, dynamic lung compliance, expiratory airflow rate, tidal volume and respiratory frequency. […] Inhibition by Compound I occurred in all pulmonary parameters calculated.

[5] = pretreat with Compound I 5 mg/kg i.v., then U-44069 0.3 μg/kg i.v.
[6] = pretreat with Compound I 5 mg/kg i.v., then U-44069 1.0 μg/kg i.v.
[7] = pretreat with Compound I 5 mg/kg i.v., then U-44069 3.0 μg/kg i.v.

Q: Which results are given for `O=S(=O)(Nc1cccc(Cl)c1)c1ccc2c(c1)CN(S(=O)(=O)NS(=O)(=O)N1CCc3ccc(S(=O)(=O)Nc4cccc(Cl)c4)cc3C1)CC2` [Compound I, N,N'-bis[7-(3-chlorobenzeneaminosulfonyl)-1,2,3,4-tetrahydroisoquinolyl]disulfonylimide]?
A: pIC50 ([1]; agonist A23187, human PRP, read-out: IC50, inhibition of secondary phase): 4.92; pIC50 ([1]; agonist Platelet Activating Factor (PAF), human PRP, read-out: IC50, inhibition of secondary phase): 5.35; pIC50 ([1]; agonist U-44069, human PRP, read-out: IC50, inhibition of primary phase): 5.60; pIC50 ([1]; agonist U-44069, human PRP, read-out: IC50, inhibition of secondary phase): 5.77; pIC50 ([1]; agonist arachidonic acid, human PRP, read-out: IC50, inhibition of primary phase): 4.72; pIC50 ([1]; agonist collagen, human PRP, read-out: IC50, inhibition of primary phase): 5.00; response to challenge with reference contractile agonist ([2]; trachea receiving Compound I, 1 × 10^-5 M carbachol): responded normally; contractile response (mg tension) ([2]; CTA2 10^-6 M, control 360.0 ± 89.8): 42.9 ± 20.2 mg tension; contractile response (mg tension) ([2]; CTA2 10^-7 M, control 125.0 ± 33.5): 0 mg tension; contractile response (mg tension) ([2]; CTA2 10^-8 M, control 0): 0 mg tension; response to challenge with reference contractile agonist ([3]; lung parenchyma receiving Compound I, 1 × 10^-3 M histamine): responded normally; contractile response (mg tension) ([3]; CTA2 10^-6 M, control 181.5 ± 23.3): 0 mg tension; contractile response (mg tension) ([3]; CTA2 10^-7 M, control 103.5 ± 23.7): 0 mg tension; contractile response (mg tension) ([3]; CTA2 10^-8 M, control 45.5 ± 11.4): 0 mg tension; Decrease in ability of lungs to expand easily [4, 5]: 5%; Increase in resistance to movement of air into the lungs [4, 5]: 14%; Decrease in ability of lungs to expand easily [4, 6]: 13%; Increase in resistance to movement of air into the lungs [4, 6]: 30%; Decrease in ability of lungs to expand easily [4, 7]: 28%; Increase in resistance to movement of air into the lungs [4, 7]: 56%; effect on U-44069-induced bronchospasm (all pulmonary parameters) ([4]; pretreatment with Compound I 5.0 mg/kg i.v., shift to the right of the control U-44069 curve): inhibition of the bronchospasm

Q: Which “Decrease in ability of lungs to expand easily” value (“Decrease in ability of lungs” for short) ([4]; U-44069 alone 0.3 μg/kg i.v.) does the source give for `CCCCC[C@H](O)/C=C/[C@H]1[C@@H]2CO[C@@H](C2)[C@@H]1C/C=C\CCCC(=O)O` [Compound U-44069, reference compound] here?
A: 28%

Q: And the “Increase in resistance to movement of air into the lungs” value (shortened to “Increase in resistance to movement”) ([4]; U-44069 alone 0.3 μg/kg i.v.)?
A: 67%

Q: And the “Decrease in ability of lungs” value ([4]; U-44069 alone 1.0 μg/kg i.v.)?
A: 56%

Q: And the “Increase in resistance to movement” value ([4]; U-44069 alone 1.0 μg/kg i.v.)?
A: 333%

Q: And the “Decrease in ability of lungs” value ([4]; U-44069 alone 3.0 μg/kg i.v.)?
A: 70%

Q: What about the “Increase in resistance to movement” value ([4]; U-44069 alone 3.0 μg/kg i.v.) of the same molecule?
A: 549%
